Test results taken from paper PMC8429728, “TNK1 is a ubiquitin-binding and 14-3-3-regulated kinase that can be targeted to block tumor growth” (Nature Communications, 2021).
Read-outs that look alike come from different tables or passages of the source.

Assays:
Assay in all cases: biochemical
Parameters in all cases: Reaction Biology 371-kinase panel at Km ATP, per cent enzyme activity relative to DMSO, single dose in duplicate
MLK4 = target: T1, MLK4 (Homo sapiens, UniProt Q5TCX8); conditions: duplicate measurements, Km ATP; read-out: % Enzyme Activity (relative to DMSO controls) / TP-0005801 (0.3µM) / Data 1
T1 construct: gene MAP3K21
Method in brief: (§1)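 First, kinases from a 371-member panel were exposed in vitro to 300 nM inhibitor. Next, % enzyme activity versus DMSO was computed. Finally, IC50s were derived by sigmoidal dose-response fitting with variable slope and a zero bottom constraint.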

CDK9/cyclin T2 = CDK9/cyclin T2 (Homo sapiens, UniProt P50750); conditions: duplicate measurements, Km ATP
CDK9/cyclin T2, sequence (P50750 whole entry): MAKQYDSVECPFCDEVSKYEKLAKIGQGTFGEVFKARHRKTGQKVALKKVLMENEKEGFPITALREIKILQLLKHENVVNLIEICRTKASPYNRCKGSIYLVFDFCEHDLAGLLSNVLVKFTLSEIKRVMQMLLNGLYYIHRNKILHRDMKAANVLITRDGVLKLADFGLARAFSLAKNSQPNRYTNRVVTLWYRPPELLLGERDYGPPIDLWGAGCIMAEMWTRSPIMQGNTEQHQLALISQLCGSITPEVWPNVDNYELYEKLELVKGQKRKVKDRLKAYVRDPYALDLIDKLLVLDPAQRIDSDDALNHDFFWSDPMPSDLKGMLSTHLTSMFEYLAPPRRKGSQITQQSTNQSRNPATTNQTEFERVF
CDK9/cyclin T2, sequence (O60583 whole entry partner): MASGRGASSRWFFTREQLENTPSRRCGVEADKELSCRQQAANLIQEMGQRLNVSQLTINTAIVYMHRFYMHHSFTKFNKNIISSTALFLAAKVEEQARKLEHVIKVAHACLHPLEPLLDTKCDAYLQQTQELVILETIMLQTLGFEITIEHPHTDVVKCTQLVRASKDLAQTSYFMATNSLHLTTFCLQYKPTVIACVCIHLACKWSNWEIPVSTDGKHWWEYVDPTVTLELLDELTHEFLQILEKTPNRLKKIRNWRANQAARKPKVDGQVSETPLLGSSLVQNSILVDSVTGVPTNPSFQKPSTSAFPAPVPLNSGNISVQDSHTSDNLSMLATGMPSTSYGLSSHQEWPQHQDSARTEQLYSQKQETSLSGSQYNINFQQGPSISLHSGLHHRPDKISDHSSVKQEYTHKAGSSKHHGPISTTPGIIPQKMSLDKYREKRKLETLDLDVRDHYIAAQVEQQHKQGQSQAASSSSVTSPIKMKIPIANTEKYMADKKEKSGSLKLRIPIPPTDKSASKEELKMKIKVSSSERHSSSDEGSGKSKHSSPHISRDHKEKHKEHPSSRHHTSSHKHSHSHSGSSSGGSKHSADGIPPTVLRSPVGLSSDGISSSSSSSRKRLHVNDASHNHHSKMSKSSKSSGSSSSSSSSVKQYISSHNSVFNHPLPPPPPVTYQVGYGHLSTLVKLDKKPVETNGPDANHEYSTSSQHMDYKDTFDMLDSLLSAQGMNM
Method in brief: as §1

PBK/TOPK = PBK/TOPK (Homo sapiens, UniProt Q96KB5); conditions: duplicate measurements, Km ATP
Method in brief: as §1

FGFR3 = FGFR3 (Homo sapiens, UniProt P22607); conditions: duplicate measurements, Km ATP
Method in brief: as §1

TRKB = target: T2, TRKB (Homo sapiens, UniProt Q16620); conditions: duplicate measurements, Km ATP
T2 construct: gene NTRK2
Method in brief: as §1

MSK1/RPS6KA5 = MSK1/RPS6KA5 (Homo sapiens, UniProt O75582); conditions: duplicate measurements, Km ATP
Method in brief: as §1

STK32C/YANK3 = STK32C/YANK3 (Homo sapiens, UniProt Q86UX6); conditions: duplicate measurements, Km ATP
Method in brief: as §1

FGFR4 = FGFR4 (Homo sapiens, UniProt P22455); conditions: duplicate measurements, Km ATP
Method in brief: as §1

TYK2 = TYK2 (Homo sapiens, UniProt P29597); conditions: duplicate measurements, Km ATP
TYK2, sequence (P29597 whole entry): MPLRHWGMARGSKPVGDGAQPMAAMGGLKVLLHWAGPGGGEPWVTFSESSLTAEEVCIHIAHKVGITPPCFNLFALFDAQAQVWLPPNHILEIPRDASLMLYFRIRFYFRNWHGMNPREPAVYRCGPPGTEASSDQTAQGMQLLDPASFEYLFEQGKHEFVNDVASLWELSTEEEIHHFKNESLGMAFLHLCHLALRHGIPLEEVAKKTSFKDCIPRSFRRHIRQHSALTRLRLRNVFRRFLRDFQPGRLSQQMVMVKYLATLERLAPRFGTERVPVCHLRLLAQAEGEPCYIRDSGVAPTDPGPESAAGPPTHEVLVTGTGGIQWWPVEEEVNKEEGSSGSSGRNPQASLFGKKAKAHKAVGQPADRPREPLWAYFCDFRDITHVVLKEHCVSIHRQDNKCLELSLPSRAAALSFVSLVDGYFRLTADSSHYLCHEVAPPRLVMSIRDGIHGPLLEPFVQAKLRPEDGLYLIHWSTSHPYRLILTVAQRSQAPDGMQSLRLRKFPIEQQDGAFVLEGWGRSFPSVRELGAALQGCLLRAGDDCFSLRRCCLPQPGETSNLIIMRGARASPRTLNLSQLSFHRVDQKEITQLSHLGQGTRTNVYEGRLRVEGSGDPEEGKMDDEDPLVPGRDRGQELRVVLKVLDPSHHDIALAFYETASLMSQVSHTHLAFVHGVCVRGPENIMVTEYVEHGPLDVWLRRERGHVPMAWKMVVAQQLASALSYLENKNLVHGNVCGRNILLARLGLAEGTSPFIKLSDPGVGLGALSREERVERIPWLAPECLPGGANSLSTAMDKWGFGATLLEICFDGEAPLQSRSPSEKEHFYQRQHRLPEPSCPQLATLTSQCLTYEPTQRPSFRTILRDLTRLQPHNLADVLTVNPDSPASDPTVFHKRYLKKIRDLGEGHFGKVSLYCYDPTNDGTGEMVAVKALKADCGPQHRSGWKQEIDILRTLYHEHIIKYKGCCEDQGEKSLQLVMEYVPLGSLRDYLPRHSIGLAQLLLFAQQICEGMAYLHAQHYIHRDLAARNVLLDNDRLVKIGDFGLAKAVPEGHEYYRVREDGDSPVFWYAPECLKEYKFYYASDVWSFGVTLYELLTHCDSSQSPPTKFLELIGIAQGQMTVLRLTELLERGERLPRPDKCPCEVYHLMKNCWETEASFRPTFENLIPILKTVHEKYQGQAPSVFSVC
Method in brief: as §1

ERN1/IRE1 = ERN1/IRE1 (Homo sapiens, UniProt O75460); conditions: duplicate measurements, Km ATP
Method in brief: as §1

DCAMKL2 = target: T3, DCAMKL2 (Homo sapiens, UniProt Q8N568); conditions: duplicate measurements, Km ATP
T3 construct: gene DCLK2
T3 sequence (Q8N568 whole entry): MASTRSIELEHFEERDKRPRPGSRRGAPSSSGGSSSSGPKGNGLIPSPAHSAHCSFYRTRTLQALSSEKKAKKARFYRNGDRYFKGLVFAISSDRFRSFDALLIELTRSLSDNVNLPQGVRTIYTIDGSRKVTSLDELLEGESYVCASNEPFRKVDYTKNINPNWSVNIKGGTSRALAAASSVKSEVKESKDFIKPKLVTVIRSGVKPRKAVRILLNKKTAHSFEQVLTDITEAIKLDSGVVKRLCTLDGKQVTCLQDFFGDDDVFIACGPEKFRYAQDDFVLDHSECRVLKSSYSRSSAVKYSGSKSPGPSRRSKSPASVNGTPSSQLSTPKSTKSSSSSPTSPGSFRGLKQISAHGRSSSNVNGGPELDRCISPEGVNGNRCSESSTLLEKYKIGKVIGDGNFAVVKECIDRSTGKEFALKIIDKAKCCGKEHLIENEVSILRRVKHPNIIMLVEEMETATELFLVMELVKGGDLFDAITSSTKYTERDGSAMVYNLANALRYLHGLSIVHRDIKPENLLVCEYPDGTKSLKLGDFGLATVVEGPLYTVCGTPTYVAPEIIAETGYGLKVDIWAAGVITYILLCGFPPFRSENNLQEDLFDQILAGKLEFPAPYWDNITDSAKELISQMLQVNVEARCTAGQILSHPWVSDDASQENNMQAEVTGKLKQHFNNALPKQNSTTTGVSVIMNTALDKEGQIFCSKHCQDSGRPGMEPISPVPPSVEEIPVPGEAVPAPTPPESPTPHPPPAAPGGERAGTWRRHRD
Method in brief: as §1

SSTK/TSSK6 = SSTK/TSSK6 (Homo sapiens, UniProt Q9BXA6); conditions: duplicate measurements, Km ATP
SSTK/TSSK6, sequence (Q9BXA6 whole entry): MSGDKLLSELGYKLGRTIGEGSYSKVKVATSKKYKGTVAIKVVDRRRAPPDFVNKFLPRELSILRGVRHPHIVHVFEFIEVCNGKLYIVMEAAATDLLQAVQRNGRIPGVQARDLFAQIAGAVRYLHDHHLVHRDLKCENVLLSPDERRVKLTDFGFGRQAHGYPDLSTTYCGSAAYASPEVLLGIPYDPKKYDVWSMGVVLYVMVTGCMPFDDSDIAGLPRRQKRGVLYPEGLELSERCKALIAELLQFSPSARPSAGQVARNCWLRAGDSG
Method in brief: as §1

c-Kit = c-Kit (Homo sapiens, UniProt P10721); conditions: duplicate measurements, Km ATP
Method in brief: as §1

RAF1 = RAF1 (Homo sapiens, UniProt P04049); conditions: duplicate measurements, Km ATP
Method in brief: as §1

c-Src = c-Src (Homo sapiens, UniProt P12931); conditions: duplicate measurements, Km ATP
c-Src, sequence (P12931 whole entry): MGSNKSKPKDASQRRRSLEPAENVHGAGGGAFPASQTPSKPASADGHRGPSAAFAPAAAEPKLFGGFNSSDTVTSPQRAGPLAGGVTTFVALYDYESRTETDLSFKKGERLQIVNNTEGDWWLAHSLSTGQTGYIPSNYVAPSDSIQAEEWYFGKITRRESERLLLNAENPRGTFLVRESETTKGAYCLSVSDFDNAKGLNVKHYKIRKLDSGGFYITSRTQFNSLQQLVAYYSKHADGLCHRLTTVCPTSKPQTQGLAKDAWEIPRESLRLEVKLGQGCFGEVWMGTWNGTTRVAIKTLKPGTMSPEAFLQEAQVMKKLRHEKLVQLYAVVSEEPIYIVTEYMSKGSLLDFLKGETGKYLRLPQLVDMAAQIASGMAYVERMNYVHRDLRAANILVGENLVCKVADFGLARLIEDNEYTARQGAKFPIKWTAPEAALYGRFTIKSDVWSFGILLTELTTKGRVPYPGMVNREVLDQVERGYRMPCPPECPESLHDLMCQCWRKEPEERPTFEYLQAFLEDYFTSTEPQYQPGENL
Method in brief: as §1

MST1/STK4 = MST1/STK4 (Homo sapiens, UniProt Q13043); conditions: duplicate measurements, Km ATP
MST1/STK4, sequence (Q13043 whole entry): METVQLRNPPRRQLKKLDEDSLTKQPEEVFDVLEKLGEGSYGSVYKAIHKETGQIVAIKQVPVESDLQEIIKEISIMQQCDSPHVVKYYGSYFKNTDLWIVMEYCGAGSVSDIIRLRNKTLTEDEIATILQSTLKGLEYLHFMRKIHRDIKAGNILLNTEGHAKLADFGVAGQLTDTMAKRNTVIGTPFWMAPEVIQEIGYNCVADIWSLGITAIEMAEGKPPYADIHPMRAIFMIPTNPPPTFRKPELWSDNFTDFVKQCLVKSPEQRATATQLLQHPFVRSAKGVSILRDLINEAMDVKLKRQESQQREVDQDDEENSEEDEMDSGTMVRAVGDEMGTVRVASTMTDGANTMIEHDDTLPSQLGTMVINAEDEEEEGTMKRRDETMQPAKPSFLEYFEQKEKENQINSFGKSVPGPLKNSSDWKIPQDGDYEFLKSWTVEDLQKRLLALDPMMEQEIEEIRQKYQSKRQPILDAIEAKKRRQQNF
Method in brief: as §1

HIPK4 = HIPK4 (Homo sapiens, UniProt Q8NE63); conditions: duplicate measurements, Km ATP
HIPK4, sequence (Q8NE63 whole entry): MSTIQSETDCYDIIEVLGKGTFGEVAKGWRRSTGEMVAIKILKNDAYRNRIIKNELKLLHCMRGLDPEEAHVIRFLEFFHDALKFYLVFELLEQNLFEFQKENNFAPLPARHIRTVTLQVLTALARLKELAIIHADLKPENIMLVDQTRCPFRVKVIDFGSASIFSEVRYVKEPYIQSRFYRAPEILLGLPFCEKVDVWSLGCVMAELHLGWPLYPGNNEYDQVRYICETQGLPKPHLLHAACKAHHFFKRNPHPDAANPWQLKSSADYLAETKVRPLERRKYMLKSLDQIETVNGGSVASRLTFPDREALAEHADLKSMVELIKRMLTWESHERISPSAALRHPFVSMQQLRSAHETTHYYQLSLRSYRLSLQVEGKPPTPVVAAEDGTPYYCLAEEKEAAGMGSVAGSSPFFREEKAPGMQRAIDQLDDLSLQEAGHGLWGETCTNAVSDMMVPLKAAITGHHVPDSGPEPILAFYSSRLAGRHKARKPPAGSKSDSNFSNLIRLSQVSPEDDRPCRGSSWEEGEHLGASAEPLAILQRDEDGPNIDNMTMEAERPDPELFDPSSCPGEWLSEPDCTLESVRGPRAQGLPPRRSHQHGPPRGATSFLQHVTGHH
Method in brief: as §1

CAMK1b = target: T4, CAMK1b (Homo sapiens, UniProt Q6P2M8); conditions: duplicate measurements, Km ATP
T4 construct: gene PNCK
Method in brief: as §1

ARK5/NUAK1 = ARK5/NUAK1 (Homo sapiens, UniProt O60285); conditions: duplicate measurements, Km ATP; read-out: % Enzyme Activity (relative to DMSO controls) / TP-0005801 (0.3µM) / Data 1
Method in brief: as §1

ERK7/MAPK15 = ERK7/MAPK15 (Homo sapiens, UniProt Q8TD08); conditions: duplicate measurements, Km ATP
Method in brief: as §1

[1] = read-out: % Enzyme Activity (relative to DMSO controls) / TP-0005801 (0.3µM) / Data 1
[2] = read-out: % Enzyme Activity (relative to DMSO controls) / TP-0005801 (0.3µM) / Data 2

## COc1cc(N2CCN(C)CC2)c(C)cc1Nc1ncc(Br)c(Nc2cccnc2N(C)C)n1 [TP-5801]
MLK4
  remaining activity at 0.3 µM: 106%
CDK9/cyclin T2; [1]
  remaining activity at 0.3 µM: 89.2%
CDK9/cyclin T2; [2]
  remaining activity at 0.3 µM: 88.6%
PBK/TOPK; [1]
  remaining activity at 0.3 µM: 107%
PBK/TOPK; [2]
  remaining activity at 0.3 µM: 98.9%
FGFR3; [1]
  remaining activity at 0.3 µM: 107%
FGFR3; [2]
  remaining activity at 0.3 µM: 105%
TRKB; [1]
  remaining activity at 0.3 µM: 96.1%
TRKB; [2]
  remaining activity at 0.3 µM: 95.9%
MSK1/RPS6KA5; [1]
  remaining activity at 0.3 µM: 127%
MSK1/RPS6KA5; [2]
  remaining activity at 0.3 µM: 123%
STK32C/YANK3; [1]
  remaining activity at 0.3 µM: 90.2%
STK32C/YANK3; [2]
  remaining activity at 0.3 µM: 83.2%
FGFR4; [1]
  remaining activity at 0.3 µM: 79.9%
FGFR4; [2]
  remaining activity at 0.3 µM: 77.6%
TYK2; [1]
  remaining activity at 0.3 µM: 100%
TYK2; [2]
  remaining activity at 0.3 µM: 96.7%
ERN1/IRE1; [1]
  remaining activity at 0.3 µM: 83%
ERN1/IRE1; [2]
  remaining activity at 0.3 µM: 82.7%
DCAMKL2; [1]
  remaining activity at 0.3 µM: 93.7%
DCAMKL2; [2]
  remaining activity at 0.3 µM: 89.7%
SSTK/TSSK6; [1]
  remaining activity at 0.3 µM: 111%
SSTK/TSSK6; [2]
  remaining activity at 0.3 µM: 107%
c-Kit; [1]
  remaining activity at 0.3 µM: 85.3%
c-Kit; [2]
  remaining activity at 0.3 µM: 85.1%
RAF1; [1]
  remaining activity at 0.3 µM: 90.8%
RAF1; [2]
  remaining activity at 0.3 µM: 90.2%
c-Src; [1]
  remaining activity at 0.3 µM: 107%
c-Src; [2]
  remaining activity at 0.3 µM: 106%
MST1/STK4; [1]
  remaining activity at 0.3 µM: 101%
MST1/STK4; [2]
  remaining activity at 0.3 µM: 97.2%
HIPK4; [1]
  remaining activity at 0.3 µM: 79.6%
HIPK4; [2]
  remaining activity at 0.3 µM: 78.6%
CAMK1b; [1]
  remaining activity at 0.3 µM: 119%
CAMK1b; [2]
  remaining activity at 0.3 µM: 114%
ARK5/NUAK1
  remaining activity at 0.3 µM: 14.2%
ERK7/MAPK15; [1]
  remaining activity at 0.3 µM: 97.2%
ERK7/MAPK15; [2]
  remaining activity at 0.3 µM: 96.4%
